Test results taken from patent publication US20260272878A1, “ADAR1 INHIBITORS AND USES THEREOF” (THE WISTAR INSTITUTE OF ANATOMY AND BIOLOGY, priority 2023, published 2026).
Entries after “also recorded” stand apart in the source; their conditions may differ.

Tests used:
[1] = tested on: Z-RNA; assay: Z-RNA formation; assay type: cell-based
From the text: FIGS. 7A-7C show analysis of ADAR1i-13 and analogs. […] IC50 values determined by dose-dependent in vitro editing assay are shown for ADAR1 inhibition positive compounds. […] Dumbbell-shaped dsRNA has been reported to form Z-RNA conformation and act as a strong IFN signaling activation triggers. ADAR1p150 mediated A-to-I editing suppresses Z-RNA structure transition and activation of IFN signaling.

[2] = tested on: YUMM1.7 cells; assay: Cell death mechanism, pMLKL necroptosis marker, YUMM1.7; assay type: cell-based, mouse; details: YUMM1.7, pMLKL marker
From the text: (§1) FIGS. 10A-10C show ADAR1i-124 kills cancer cells via different cell death mechanism. (FIG. 10A) Differential expression of ADAR1p150 and ADAR1p110 in cancer cells. […] Annexin V and pMLKL were used as apoptosis and necroptosis markers, respectively. At least 200 cells were examined. Data: mean±SD (n=3). Significant differences were identified by two tailed Student's t-tests: *P<0.05, n.s., not significant. […] We plan to evaluate ADAR1 inhibitors in vivo in mouse tumor model systems by using these mouse cancer cell lines.
(§2) Thus, ADAR1i-124 has the potential to act as a “two birds with one stone” cancer therapeutic.

[3] = tested on: mouse melanoma and ovarian cancer cells; assay: Killing of mouse melanoma and ovarian cancer cells (FIG. 10C); assay type: cell-based
From the text: as §1

[4] = tested on: ALT U2OS cells; assay: Cell killing / viability, U2OS; assay type: cell-based
Procedure: FIGS. 8A-8C show analysis of ADAR1i-124 effects in cancer cells. […] Viability was examined using the Apo Tox-Glo assay system. Control, 0.3% DMSO. Data: mean±SD (n=3). Significant differences identified by two-tailed Student's t-tests: *P<0.05, n.s., not significant. (FIG. 8B) Western blotting analysis of HeLa cells treated with ADAR1i-124 (10 μM).
FIGS. 9A-9C show dose-dependent killing of cancer cells and activation of IFN signaling. […] YUMM1.7 (FIG. 9B) and HGS2 cells (FIG. 9C) were treated with ADAR1i-124 at 10 μM (12 hrs). RNA samples were analyzed by qRT-PCR to monitor ISG expression levels. Data: mean±SD (n=3). Significant differences were identified by two-tailed Student's t-tests: ***P<0.001.
Dose-dependent selective killing of telomerase reactivated cancer cells was determined (FIG. 9A).

[5] = tested on: HeLa cells; assay: Cell death mechanism, Annexin V apoptosis marker, HeLa; assay type: cell-based, human
From the text: as §1, §2

[6] = tested on: mouse melanoma; assay: Subcutaneous mouse melanoma growth in B6 black mice; assay type: in vivo; details: 4 treatments starting at Day 8, versus vehicle
From the text: We inoculated mouse melanoma cells subcutaneously in B6 black mice. Then, starting at Day 8, we treated mice for 4 treatments of either vehicle only or ADAR1i-124 (FIG. 11A).

Question: Which results are given for `N#Cc1ccc(NC(=O)c2c(Cl)c3ccccc3n2CO)cc1` [ADAR1i-124]?
Answer: Z-RNA formation [1]: induces formation of Z-RNAs; Induction of necroptosis [2]: induced necroptosis; also recorded: killed via necroptosis; Killing of mouse melanoma and ovarian cancer cells [3]: dose-dependently and efficiently killed; Killing of U2OS cells [4]: unaffected; Induction of apoptosis [5]: induced apoptosis; also recorded: killed via apoptosis; Growth of mouse melanomas in vivo [6]: significantly suppressed growth of mouse melanomas
